Measured values: publication PMC12389038 (Pharmaceutics, 2025)
Marks after values point to notes of the source that are not given here.

Tests used:
in vivo = test: in vivo; design: species or system CBi/L and CBi+ mice; conditions: mouse, po, 15 mg/kg
Description: Separately, 2.6 g of gelatin powder was dissolved in 10 mL of hot water (60 °C), and 100 μL of this solution was added to each tube before solidification. The mixture was then sonicated in a 60 °C water bath, and 40 mg of powdered commercial chow was added to enhance palatability and ensure complete ingestion. This procedure was developed in our lab and was published in Codina et al..
Following the procedures described by Codina et al., three to four animals per formulation were anesthetized after the drug administration with an intraperitoneal injection of ketamine/xylazine 10:1, 5 min before blood collection. Whole blood (approximately 1.5 mL) samples were taken by cardiac puncture at 0.3, 0.6, 1, 1.2, 2, 2.5, 3, 4, 5, 7, and 24 h post-treatment. Blood was collected into heparinized vials and centrifuged at 9000 rpm for 15 min to obtain plasma, which was transferred to a plastic tube and stored at −20 °C until HPLC analysis.
Briefly, each plasma sample (200 μL) was deproteinized by adding methanol (1 mL), frozen for 30 min at −20 °C, and centrifuged at 15,000 rpm at 4 °C for 12 min. Then, the supernatant was evaporated under vacuum, and the dried samples were stored frozen until analyzed. Samples were reconstituted in 100 μL of the mobile phase and filtered through 0.2 μm polyvinylidene fluoride (PVDF) syringe filters (Agilent, Santa Clara, CA, USA). The mobile phase consisted of 0.05 M of monobasic potassium phosphate buffer and methanol (40:60, v/v). […] Briefly, each plasma sample (200 μL) was treated to eliminate proteins by adding methanol (1 mL), frozen for 30 min at −20 °C, and centrifuged at 15,000 rpm at 4 °C for 12 min. Then, the supernatant was evaporated under a vacuum, and the dried samples were frozen until analyzed. Samples of 25 μL were injected, and the analytes were eluted (flow 1.2 mL/min) from a column Zorbax Eclipse C-18 (150 × 4.6 mm; 5 μm). The absorbance was measured at a wavelength of 247 nm. The analyte retention time was 3.8 ± 0.2 min.
According to regulatory guidelines, the Lower Limit of Quantification (LLOQ) is defined as the lowest concentration of an analyte in a biological matrix that can be quantitatively determined with acceptable precision and accuracy. […] The LLOQ was determined based on the standard deviation of the response at the lowest concentration point, measured in triplicate, and was evaluated for both precision (% CV) and accuracy criteria. […] Consequently, only data up to 7 h were considered for pharmacokinetic analysis.
AUCs were calculated using the trapezoidal rule. Pharmacokinetic parameters were expressed as mean ± SEM. In this section, we report data as mean ± SEM to provide a measure of the central tendency along with the precision of the estimated mean. The standard error of the mean (SEM) is particularly useful for highlighting the reliability of the sample mean as an estimate of the true population mean, which is relevant when evaluating pharmacokinetic (PK) parameters under controlled conditions.

[1] = Particle size determination (SEM image analysis / Nano Particle Analyzer); format: physicochemical
Description: The particle size of the NP and inclusion complexes was determined by imaging using scanning electron microscopy (Leitz AMR 1600 T [Amray, Bedford, MA, USA]), with an acceleration potential of 20 kV. Samples were sputter-coated with a gold layer to make them conductive. Then, to determine the particle size, scanning electron microscopy images were analyzed using the ImageJ 1x software, a Java-based graphic design program dedicated to image analysis, to estimate size. The particle size of nano-formulations was determined by using a Nano Particle Analyzer Horiba SZ-100 (Kyoto, Japan). Samples were diluted (1:30) in filtered distilled water before measuring.

[2] = tested on: Trichinella spiralis encysted muscle larvae; test: In vivo therapeutic efficacy in the parenteral stage of T. spiralis infection; design: species or system CBi/L and CBi+ mice; conditions: for Dead larvae percentage: 15 mg MBZ/kg/day oral days 27, 28, 29 p-i, methylene blue, median (range)
Description: Since CBi/L and CBi+ mice show significant body weight differences, as already stated, adult animals of both sexes were infected orally with an equivalent dose of 2 T. spiralis L1 larvae per g of the host’s body weight. Each animal was weighed before infection, 24–48 h before treatment, and before sacrifice. During the infection course, the general health of each mouse (overall physical condition and behavior) was monitored three times a week.
Six mice per line and sex were randomly assigned to the non-treated control (C) or treated groups (MBZ, NP, or Comp). Seven days after the last dose, mice were sacrificed to quantify encysted muscle larvae in the tongue. The tongue was excised, weighed, and digested overnight at 37 °C in a pepsin–HCl solution. Digestion was interrupted by adding saline, and the larvae were rinsed several times with saline to remove debris. After low-speed centrifugation (250–300 g, 5 min), the supernatant was carefully removed, and the pellet containing larvae was resuspended in 2 mL of saline. Larvae were counted under an optical microscope at 40× magnification using an acrylic plate. Each formulation’s anthelmintic efficacy was assessed by its effect on the larval muscle load (relative larval load: rLL, number of L1 larvae per g fresh tissue). Also, the effect of the formulations on the encysted L1 larvae viability (dead larvae percentage: proportion of dead muscle larvae/total muscle larvae recovered from each animal) was analyzed using the methylene blue supravital staining technique, as already described.

[3] = tested on: Trichinella spiralis encysted muscle larvae; test: Increasing doses of pure MBZ, therapeutic efficacy in T. spiralis-infected CBi+ mice; format: in vivo; conditions: CBi+ males and females, 30 or 45 mg of MBZ/kg, vs control mice or 15 mg of MBZ/kg
Description: As in the experiments described in Section 2.10.2, the pure drug was administered in the parenteral stage of infection on days 27, 28, and 29 p-i. Seven days after the last dose, mice were sacrificed, and the number and viability of the tongue’s encysted muscle larvae were determined to evaluate anthelmintic efficacy.

[4] = background statement, no reference given; cited from earlier work
T. spiralis female worms = test: In vitro parasitic assay on T. spiralis female worms; design: species or system Trichinella spiralis
Description: CBi mice were orally infected with 10 L1 T. spiralis larvae per gram of body weight and sacrificed on day 6 post-infection (intestinal phase) as described previously. After euthanasia, the small intestine was excised, segmented into equal lengths, and placed in Petri dishes containing 8–12 mL of incubation medium (0.85% NaCl with 250 μg/mL gentamicin). Each segment was opened longitudinally, gently agitated in the medium, and incubated for 4 h at 37 °C in 5% CO2. Following incubation, intestinal pieces were rinsed with medium and discarded. The medium containing released parasites was collected, centrifuged at a low speed, and the pellet was resuspended in 2–3 mL of RPMI 1640 supplemented with 250 μg/mL of gentamicin and 10% fetal bovine serum. Female worms were then isolated under sterile conditions for further assays.
They were stirred at room temperature for 24 h and then filtered through sterile ethyl cellulose 0.2 μm pore filters (Minisart®, Sartorius Stedim Biotech, Göttingen, Germany).
The entire procedure was conducted under sterile conditions as described by Priotti et al.. Female T. spiralis worms obtained as above were incubated overnight in RPMI 1640 supplemented with 250 μg/mL of gentamicin and 10% fetal bovine serum at 37 °C in 5% CO2. […] The MBZ solution served as the positive control, and the culture medium with the solvent served as the negative control. Worms were incubated at 37 °C in a humidified 5% CO2 atmosphere for 30 h and observed under an inverted microscope at 2, 4, 7, 24, and 30 h. Viability was assessed at each time point by motility and morphology to classify worms as live or dead. The number and motility of newborn larvae were also recorded. Median worm survival was analyzed using survival curves. Experiments were performed in duplicate, with data corrected against the negative control.
Survival curves were calculated using Kaplan and Meier’s product limit method (GraphPad Prism® 9.5; GraphPad Software, Inc., San Diego, CA, USA). The significance of the difference among survival curves was determined with the log-rank test.

## COC(=O)Nc1nc2ccc(C(=O)c3ccccc3)cc2[nH]1 [MBZ, Mebendazole]
In vivo; female, CBi+
  AUC(0-t): 600 ± 80 ng·h/mL
  Cmax: 200 ± 20 ng/mL
  Tmax: 39.6 min
In vivo; female, CBi/L
  AUC(0-t): 3900 ± 630 ng·h/mL
  Cmax: 1300 ± 260 ng/mL
  Tmax: 39.6 min
In vivo; male, CBi+
  AUC(0-t): 400 ± 200 ng·h/mL
  Cmax: 300 ± 110 ng/mL
  Tmax: 39.6 min
In vivo; male, CBi/L
  AUC(0-t): 2700 ± 820 ng·h/mL
  Cmax: 1300 ± 310 ng/mL
  Tmax: 39.6 min
[1]
  Particle Size (mean diameter): 10.4 ± 6.9 µm
[2]; CBi+ female
  Dead larvae percentage: 5 (5–11) ^a %
[2]; CBi+ male
  Dead larvae percentage: 11 (7–75) ^a %
[2]; CBi/L female
  Dead larvae percentage: 15 (6–25) ^b %
[2]; CBi/L male
  Dead larvae percentage: 27 (7–75) ^b %
[2]; pure MBZ 15 mg/kg on days 27, 28, and 29 p-i
  Number of muscle larvae recovered compared to control animals: did not reduce the number of muscle larvae recovered
[3]
  Decrease in muscle rLL: 40%
[4]
  Oral bioavailability: approximately 20%
T. spiralis female worms; T. spiralis females, 30 h incubation in RPMI 1640
  Survival Proportion After 30 h: 79.3%
T. spiralis female worms; T. spiralis females, 30 h incubation in RPMI 1640, Kaplan–Meier
  Median Survival: Undefined
T. spiralis female worms; larvae released by females exposed to the antiparasitic solutions, 30 h
  Effect on mobility of T. spiralis newborn larvae: Neither MBZ nor the formulations affected the mobility
